Reference: ChEMBL document CHEMBL3739426, “Synthesis and biological evaluation of novel 2-isoxazoline fused cyclopentane derivatives as potential antimicrobial and anticancer agents” (Medchemcomm, 2015)
Converted amounts (≈) assume the structure as drawn.

Experiments:
HeLa = test: Cytotoxicity against human HeLa cells after 48 hrs by MTT assay; type: functional, cell-based
Pseudomonas sp. = test: Antimicrobial activity against Pseudomonas sp. by cup plate diffusion method; type: functional
Bacillus subtilis = test: Antimicrobial activity against Bacillus subtilis by cup plate diffusion method; type: functional
Priestia megaterium = test: Antimicrobial activity against Bacillus megaterium by cup plate diffusion method; type: functional
HT-29 = test: Cytotoxicity against human HT-29 cells after 48 hrs by MTT assay; type: functional, cell-based; details: HT-29, 48 h
[1] = Cytotoxicity against human PC3 cells after 48 hrs by MTT assay; type: functional, cell-based; details: PC-3, 48 h
A549 = test: Cytotoxicity against human A549 cells after 48 hrs by MTT assay; type: functional, cell-based; details: A549, 48 h
MCF7 = test: Cytotoxicity against human MCF7 cells after 48 hrs by MTT assay; type: functional, cell-based; details: MCF7, 48 h
Escherichia coli = test: Antimicrobial activity against Escherichia coli by cup plate diffusion method; type: functional
Candida albicans = test: Antimicrobial activity against Candida albicans by cup plate diffusion method; type: functional

Compound | IC50 (HeLa) | MIC (Pseudomonas sp.) | MIC (Bacillus subtilis) | MIC (Priestia megaterium) | IC50 (HT-29) | IC50 [1] | IC50 (A549) | IC50 (MCF7) | MIC (Escherichia coli) | MIC (Candida albicans)
COc1ccc(C2=NO[C@H]3[C@@H]2[C@@H](C(=O)O)C[C@H]3C(=O)O)cc1 | > 50 µg/mL | > 100 µg/mL | > 100 µg/mL | > 100 µg/mL | > 50 µg/mL | > 50 µg/mL | > 50 µg/mL | > 50 µg/mL | > 100 µg/mL | > 100 µg/mL
COc1ccc(C2=NO[C@@H]3[C@H](CO)C[C@H](CO)[C@H]23)cc1OC | > 50 µg/mL | 1.2 µg/mL (≈ 3.9 µM) | 46.8 µg/mL (≈ 152 µM) | 46.8 µg/mL (≈ 152 µM) | > 50 µg/mL | > 50 µg/mL | > 50 µg/mL | > 50 µg/mL | 0.92 µg/mL (≈ 2.99 µM) | 4.6 µg/mL (≈ 15 µM)
COC(=O)[C@H]1C[C@@H](C(=O)OC)[C@H]2ON=C(c3ccc(OC)cc3)[C@H]21 | > 50 µg/mL | > 100 µg/mL | > 100 µg/mL | > 100 µg/mL | 28.9 µg/mL (≈ 86.7 µM) | > 50 µg/mL | > 50 µg/mL | > 50 µg/mL | > 100 µg/mL | > 100 µg/mL
COC(=O)[C@H]1C[C@@H](C(=O)OC)[C@H]2ON=C(c3ccc(Br)cc3)[C@H]21 | 27.4 µg/mL (≈ 71.7 µM) | > 100 µg/mL | > 100 µg/mL | > 100 µg/mL | > 50 µg/mL | > 50 µg/mL | > 50 µg/mL | > 50 µg/mL | > 100 µg/mL | > 100 µg/mL
N#Cc1ccc(C2=NO[C@@H]3[C@H](CO)C[C@H](CO)[C@H]23)cc1 | > 50 µg/mL | 2.1 µg/mL (≈ 7.71 µM) | 21 µg/mL (≈ 77.1 µM) | 21 µg/mL (≈ 77.1 µM) | > 50 µg/mL | > 50 µg/mL | > 50 µg/mL | > 50 µg/mL | 2.1 µg/mL (≈ 7.71 µM) | 11 µg/mL (≈ 40.4 µM)
C[C@@H]1[C@H](O)[C@@H](C)/C=C/C=C/C=C/C=C/C=C/C=C/C=C/[C@H](O[C@@H]2O[C@H](C)[C@@H](O)[C@H](N)[C@@H]2O)C[C@@H]2O[C@](O)(C[C@@H](O)C[C@@H](O)[C@H](O)CC[C@@H](O)C[C@@H](O)CC(=O)O[C@H]1C)C[C@H](O)[C@H]2C(=O)O [AMPHOTERICIN B] |  |  |  |  |  |  |  |  |  | 5 µg/mL (≈ 5.41 µM)
O=C(O)[C@H]1C[C@@H](C(=O)O)[C@H]2ON=C(c3ccc(Cl)cc3)[C@H]21 | 19 µg/mL (≈ 61.3 µM) | > 100 µg/mL | 60 µg/mL (≈ 194 µM) | 30 µg/mL (≈ 96.9 µM) | > 50 µg/mL | > 50 µg/mL | 30 µg/mL (≈ 96.9 µM) | 28.5 µg/mL (≈ 92 µM) | > 100 µg/mL | > 100 µg/mL
OC[C@@H]1C[C@H](CO)[C@@H]2C(c3ccc(F)cc3)=NO[C@H]12 | > 50 µg/mL | > 100 µg/mL | > 100 µg/mL | > 100 µg/mL | 17.8 µg/mL (≈ 67.1 µM) | > 50 µg/mL | 31.1 µg/mL (≈ 117 µM) | > 50 µg/mL | > 100 µg/mL | > 100 µg/mL
Cc1ccc(C2=NO[C@@H]3[C@H](CO)C[C@H](CO)[C@H]23)cc1 | 26.5 µg/mL (≈ 101 µM) | > 100 µg/mL | > 100 µg/mL | > 100 µg/mL | > 50 µg/mL | 28 µg/mL (≈ 107 µM) | > 50 µg/mL | > 50 µg/mL | > 100 µg/mL | > 100 µg/mL
COC(=O)[C@H]1C[C@@H](C(=O)OC)[C@H]2ON=C(c3ccc(Cl)cc3)[C@H]21 | > 50 µg/mL | > 100 µg/mL | > 100 µg/mL | > 100 µg/mL | > 50 µg/mL | > 50 µg/mL | > 50 µg/mL | > 50 µg/mL | > 100 µg/mL | > 100 µg/mL
N#Cc1ccc(C2=NO[C@H]3[C@@H]2[C@@H](C(=O)O)C[C@H]3C(=O)O)cc1 | 33.3 µg/mL (≈ 111 µM) | > 100 µg/mL | > 100 µg/mL | > 100 µg/mL | 30.3 µg/mL (≈ 101 µM) | > 50 µg/mL | > 50 µg/mL | > 50 µg/mL | > 100 µg/mL | > 100 µg/mL
COC(=O)[C@H]1C[C@@H](C(=O)OC)[C@H]2ON=C(c3ccc4ccccc4c3)[C@H]21 | > 50 µg/mL | > 100 µg/mL | > 100 µg/mL | > 100 µg/mL | > 50 µg/mL | > 50 µg/mL | > 50 µg/mL | > 50 µg/mL | > 100 µg/mL | > 100 µg/mL
COC(=O)[C@H]1C[C@@H](C(=O)OC)[C@H]2ON=C(c3ccc(C)cc3)[C@H]21 | > 50 µg/mL | > 100 µg/mL | > 100 µg/mL | > 100 µg/mL | > 50 µg/mL | > 50 µg/mL | > 50 µg/mL | > 50 µg/mL | > 100 µg/mL | > 100 µg/mL
COC(=O)[C@H]1C[C@@H](C(=O)OC)[C@H]2ON=C(c3ccc(F)cc3)[C@H]21 | 20.1 µg/mL (≈ 62.6 µM) | > 100 µg/mL | > 100 µg/mL | > 100 µg/mL | > 50 µg/mL | > 50 µg/mL | > 50 µg/mL | 39.4 µg/mL (≈ 123 µM) | > 100 µg/mL | > 100 µg/mL
GENTAMICIN |  | 8 µg/mL |  |  |  |  |  |  | 2 µg/mL | 
Cc1ccc(C2=NO[C@H]3[C@@H]2[C@@H](C(=O)O)C[C@H]3C(=O)O)cc1 | > 50 µg/mL | > 100 µg/mL | > 100 µg/mL | > 100 µg/mL | > 50 µg/mL | > 50 µg/mL | > 50 µg/mL | > 50 µg/mL | > 100 µg/mL | > 100 µg/mL
O=C(O)[C@H]1C[C@@H](C(=O)O)[C@H]2ON=C(c3ccc(F)cc3)[C@H]21 | > 50 µg/mL | 7.8 µg/mL (≈ 26.6 µM) | > 100 µg/mL | > 100 µg/mL | > 50 µg/mL | > 50 µg/mL | > 50 µg/mL | > 50 µg/mL | 78 µg/mL (≈ 266 µM) | > 100 µg/mL
COC(=O)[C@H]1C[C@@H](C(=O)OC)[C@H]2ON=C(c3ccccc3Cl)[C@H]21 | > 50 µg/mL | > 100 µg/mL | > 100 µg/mL | > 100 µg/mL | > 50 µg/mL | > 50 µg/mL | > 50 µg/mL | > 50 µg/mL | > 100 µg/mL | > 100 µg/mL
COc1cc([C@@H]2c3cc4c(cc3[C@@H](O[C@@H]3O[C@@H]5CO[C@@H](C)O[C@H]5[C@H](O)[C@H]3O)[C@H]3COC(=O)[C@H]23)OCO4)cc(OC)c1O [ETOPOSIDE] | 2.35 µg/mL (≈ 3.99 µM) |  |  |  | 4.21 µg/mL (≈ 7.15 µM) | 7.2 µg/mL (≈ 12.2 µM) | 8.9 µg/mL (≈ 15.1 µM) | 11.9 µg/mL (≈ 20.3 µM) |  | 
OC[C@@H]1C[C@H](CO)[C@@H]2C(c3ccccc3Cl)=NO[C@H]12 | > 50 µg/mL | > 100 µg/mL | 74.4 µg/mL (≈ 264 µM) | > 100 µg/mL | 33.8 µg/mL (≈ 120 µM) | > 50 µg/mL | > 50 µg/mL | > 50 µg/mL | > 100 µg/mL | > 100 µg/mL
CC1(C)S[C@@H]2[C@H](NC(=O)[C@H](N)c3ccccc3)C(=O)N2[C@H]1C(=O)O [AMPICILLIN] |  |  | 25 µg/mL (≈ 71.5 µM) | 25 µg/mL (≈ 71.5 µM) |  |  |  |  |  | 
OC[C@@H]1C[C@H](CO)[C@@H]2C(c3ccc(Cl)cc3)=NO[C@H]12 | > 50 µg/mL | > 100 µg/mL | > 100 µg/mL | > 100 µg/mL | 22.9 µg/mL (≈ 81.3 µM) | > 50 µg/mL | > 50 µg/mL | 14.7 µg/mL (≈ 52.2 µM) | > 100 µg/mL | > 100 µg/mL
O=C(O)[C@H]1C[C@@H](C(=O)O)[C@H]2ON=C(c3ccccc3Cl)[C@H]21 | > 50 µg/mL | > 100 µg/mL | > 100 µg/mL | > 100 µg/mL | > 50 µg/mL | > 50 µg/mL | > 50 µg/mL | > 50 µg/mL | > 100 µg/mL | > 100 µg/mL
